The target of the assay is Helios (Homo sapiens, UniProt Q96SW2+Q9UKS7). In words: Helios Human T Regulatory Cells Degradation Assay. As to conditions: cryopreserved human T regulatory cells, incubated 20 hours, Helios-APC antibody staining, flow cytometry; read-out: hTreg Helios DC50. On the set-up: fluorescently labelled antibodies against Helios in 1× Permeabilization buffer; endogenous in cells; host or cells: cryopreserved human T regulatory cells. In kind it is cell-based. The method, then: Cryopreserved human T regulatory cells were thawed in RPMI+10% FBS+20 ng/mL IL-2. After being spun at 1200 rpm for 5 mins, the cells were resuspended in RPMI+10% FBS+20 ng/mL and rested at 37° C. with 5% CO2 for 3 hours. […] Cell cultures were incubated for 20 hours at 37° C. and 5% CO2. In order to facilitate analysis, cell cultures were spun down at 1200 rpm for 5 minutes and the supernatant was discarded using an EL406 plate washer. After washing three times with 70 μL PBS, cell pellets were resuspended in 50 μL of near IR viability staining solution (Life Technologies, Cat #L34975) and incubated for 30 minutes on ice protected from light. Cells were washed three times with 70 μL PBS+0.5% BSA using an EL406 plate washer. […] Subsequently, 30 μL of 1× Permeabilization buffer was added prior to centrifuging the cells and discarding the supernatant. Stained cells were resuspended in 30 μL of flow cytometry staining buffer (PBS+0.5% BSA) and analyzed using an Intellicyt Ique Plus flow cytometer.
Helios, sequence (Q9UKS7 whole entry): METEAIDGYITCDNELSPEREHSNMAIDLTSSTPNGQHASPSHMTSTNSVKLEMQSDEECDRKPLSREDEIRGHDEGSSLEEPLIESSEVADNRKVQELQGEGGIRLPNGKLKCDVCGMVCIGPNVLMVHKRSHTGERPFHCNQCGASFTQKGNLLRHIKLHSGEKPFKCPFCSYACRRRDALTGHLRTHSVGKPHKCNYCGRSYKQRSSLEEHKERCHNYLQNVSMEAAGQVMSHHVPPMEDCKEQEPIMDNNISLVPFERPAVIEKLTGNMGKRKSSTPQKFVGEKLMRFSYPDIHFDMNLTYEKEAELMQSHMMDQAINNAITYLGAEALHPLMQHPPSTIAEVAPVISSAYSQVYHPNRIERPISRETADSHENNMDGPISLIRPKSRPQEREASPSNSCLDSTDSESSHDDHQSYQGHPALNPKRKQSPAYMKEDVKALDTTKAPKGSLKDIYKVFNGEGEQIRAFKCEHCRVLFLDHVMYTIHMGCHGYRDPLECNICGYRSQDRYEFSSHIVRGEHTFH
Helios, sequence (Q96SW2 whole entry): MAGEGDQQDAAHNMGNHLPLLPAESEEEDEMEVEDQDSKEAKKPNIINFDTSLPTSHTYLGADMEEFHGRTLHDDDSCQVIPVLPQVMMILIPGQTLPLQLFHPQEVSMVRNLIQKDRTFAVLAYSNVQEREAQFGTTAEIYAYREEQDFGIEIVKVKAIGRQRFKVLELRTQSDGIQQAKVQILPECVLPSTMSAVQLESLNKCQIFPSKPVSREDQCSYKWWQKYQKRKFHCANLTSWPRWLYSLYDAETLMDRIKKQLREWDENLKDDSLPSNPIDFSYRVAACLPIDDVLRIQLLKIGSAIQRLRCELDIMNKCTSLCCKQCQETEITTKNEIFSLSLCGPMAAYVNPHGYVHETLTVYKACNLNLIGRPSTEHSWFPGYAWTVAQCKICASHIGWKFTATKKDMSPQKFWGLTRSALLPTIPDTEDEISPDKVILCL
Helios, sequence (Q16531 whole entry partner): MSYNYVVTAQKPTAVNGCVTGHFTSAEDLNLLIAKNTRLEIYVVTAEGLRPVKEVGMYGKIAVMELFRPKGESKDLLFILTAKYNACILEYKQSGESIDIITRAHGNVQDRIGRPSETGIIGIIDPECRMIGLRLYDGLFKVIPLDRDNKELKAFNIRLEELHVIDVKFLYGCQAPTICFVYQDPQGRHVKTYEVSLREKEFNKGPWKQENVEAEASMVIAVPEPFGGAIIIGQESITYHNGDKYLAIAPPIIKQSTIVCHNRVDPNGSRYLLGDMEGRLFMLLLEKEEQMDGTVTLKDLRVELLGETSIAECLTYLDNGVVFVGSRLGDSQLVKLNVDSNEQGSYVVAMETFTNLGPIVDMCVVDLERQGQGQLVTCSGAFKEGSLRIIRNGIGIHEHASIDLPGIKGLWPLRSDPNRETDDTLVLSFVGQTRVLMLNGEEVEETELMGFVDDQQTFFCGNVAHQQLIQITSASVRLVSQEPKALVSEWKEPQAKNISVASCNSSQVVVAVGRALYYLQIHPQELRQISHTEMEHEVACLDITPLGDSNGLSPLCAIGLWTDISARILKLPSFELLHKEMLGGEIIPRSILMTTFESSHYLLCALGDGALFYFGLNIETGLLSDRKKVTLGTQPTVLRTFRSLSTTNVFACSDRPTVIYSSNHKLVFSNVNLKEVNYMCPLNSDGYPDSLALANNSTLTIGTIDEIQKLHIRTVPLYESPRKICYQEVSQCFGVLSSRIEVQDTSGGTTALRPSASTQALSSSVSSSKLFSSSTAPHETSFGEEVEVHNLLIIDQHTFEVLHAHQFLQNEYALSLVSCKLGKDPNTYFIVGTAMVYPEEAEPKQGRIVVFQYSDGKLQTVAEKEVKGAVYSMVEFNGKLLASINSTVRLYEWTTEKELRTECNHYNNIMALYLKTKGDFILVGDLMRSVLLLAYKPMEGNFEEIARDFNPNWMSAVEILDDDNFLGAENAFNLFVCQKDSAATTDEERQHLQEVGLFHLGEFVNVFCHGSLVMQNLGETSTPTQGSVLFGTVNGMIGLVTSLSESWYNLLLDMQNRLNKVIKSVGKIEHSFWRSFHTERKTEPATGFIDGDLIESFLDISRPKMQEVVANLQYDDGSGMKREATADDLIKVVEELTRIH
`COc1c(CN2CCC(C(C)(C)O)CC2)ccnc1-c1ccc2c(c1)CN(C1CCC(=O)NC1=O)C2=O` (stereo not drawn) [Example 172, 3-(5-(4-((4-(2-hydroxypropan-2-yl)piperidin-1-yl)methyl)-3-methoxypyridin-2-yl)-1-oxoisoindolin-2-yl)piperidine-2,6-dione]: the DC50 amounted to 5.2 nM.
On to `COc1c(CN2CCC(C3CC3)C2)ccnc1-c1ccc2c(c1)CN(C1CCC(=O)NC1=O)C2=O` (stereo not drawn) [Example 173, 3-(5-(4-((3-cyclopropylpyrrolidin-1-yl)methyl)-3-methoxypyridin-2-yl)-1-oxoisoindolin-2-yl)piperidine-2,6-dione], for which the DC50 was determined as 0.4 nM.
In the case of `COc1cc(CN2CC3(CCC3)C2)cc(-c2ccc3c(c2)CN(C2CCC(=O)NC2=O)C3=O)n1` (stereo not drawn) [Example 174, 3-(5-(4-((2-azaspiro[3.3]heptan-2-yl)methyl)-6-methoxypyridin-2-yl)-1-oxoisoindolin-2-yl)piperidine-2,6-dione], the DC50 stood at 1.5 nM.
With `COc1cc(CN2CCC(C3CC3)C2)cc(-c2ccc3c(c2)CN(C2CCC(=O)NC2=O)C3=O)n1` (stereo not drawn) [Example 175, 3-(5-(4-((3-cyclopropylpyrrolidin-1-yl)methyl)-6-methoxypyridin-2-yl)-1-oxoisoindolin-2-yl)piperidine-2,6-dione], the DC50 was 0.2 nM.
The result for `O=C1CCC(N2Cc3cc(-c4cc(CN5CC6(CCC6)C5)c(C(F)(F)F)cn4)ccc3C2=O)C(=O)N1` (stereo not drawn) [Example 180, 3-(5-(4-((2-azaspiro[3.3]heptan-2-yl)methyl)-5-(trifluoromethyl)pyridin-2-yl)-1-oxoisoindolin-2-yl)piperidine-2,6-dione] reads at least 10000 nM; that for `COCC1CN(Cc2cc(-c3ccc4c(c3)CN(C3CCC(=O)NC3=O)C4=O)ncc2C(F)(F)F)C1` (stereo not drawn) [Example 181, 3-(5-(4-((3-(methoxymethyl)azetidin-1-yl)methyl)-5-(trifluoromethyl)pyridin-2-yl)-1-oxoisoindolin-2-yl)piperidine-2,6-dione], at least 10000 nM; that for `O=C1CCC(N2Cc3cc(-c4nccc(CN5CCC(OC(F)(F)F)C5)c4F)ccc3C2=O)C(=O)N1` (stereo not drawn) [Example 183, 3-(5-(3-fluoro-4-((3-(trifluoromethoxy)pyrrolidin-1-yl)methyl)pyridin-2-yl)-1-oxoisoindolin-2-yl)piperidine-2,6-dione], at least 10000 nM.
Turning to `O=C1CCC(N2Cc3cc(-c4nccc(CN5CC[C@H](F)C5)c4F)ccc3C2=O)C(=O)N1` (stereo partly drawn) [Example 184, 3-(5-(3-fluoro-4-(((S)-3-fluoropyrrolidin-1-yl)methyl)pyridin-2-yl)-1-oxoisoindolin-2-yl)piperidine-2,6-dione], the DC50 turned out to be 3160 nM.
Regarding `O=C1CCC(N2Cc3cc(-c4nccc(CN5CCC(O)(C(F)(F)F)C5)c4F)ccc3C2=O)C(=O)N1` (stereo not drawn) [Example 185, 3-(5-(3-fluoro-4-((3-hydroxy-3-(trifluoromethyl)pyrrolidin-1-yl)methyl)pyridin-2-yl)-1-oxoisoindolin-2-yl)piperidine-2,6-dione], the DC50 was at least 10000 nM.
Take `O=C1CCC(N2Cc3cc(-c4nccc(CN5Cc6cccc(F)c6C5)c4F)ccc3C2=O)C(=O)N1` (stereo not drawn) [Example 186, 3-(5-(3-fluoro-4-((4-fluoroisoindolin-2-yl)methyl)pyridin-2-yl)-1-oxoisoindolin-2-yl)piperidine-2,6-dione]: the half-maximal degradation concentration (DC50) was at least 10000 nM.
The result for `O=C1CCC(N2Cc3cc(-c4nccc(CN5Cc6ccc(Cl)cc6C5)c4F)ccc3C2=O)C(=O)N1` (stereo not drawn) [Example 187, 3-(5-(4-((5-chloroisoindolin-2-yl)methyl)-3-fluoropyridin-2-yl)-1-oxoisoindolin-2-yl)piperidine-2,6-dione] reads at least 10000 nM; that for `CC(C)(C)NC(=O)C1CCCN1Cc1ccnc(-c2ccc3c(c2)CN(C2CCC(=O)NC2=O)C3=O)c1` (stereo not drawn) [Example 188, N-(tert-butyl)-1-((2-(2-(2,6-dioxopiperidin-3-yl)-1-oxoisoindolin-5-yl)pyridin-4-yl)methyl)pyrrolidine-2-carboxamide], 28.7 nM; that for `COCC1N(Cc2ccnc(-c3ccc4c(c3)CN(C3CCC(=O)NC3=O)C4=O)c2)CC12CCC2` (stereo not drawn) [Example 189, 3-(5-(4-((1-(methoxymethyl)-2-azaspiro[3.3]heptan-2-yl)methyl)pyridin-2-yl)-1-oxoisoindolin-2-yl)piperidine-2,6-dione], 6.4 nM.
In the case of `O=C1CCC(N2Cc3cc(-c4cc(CN5CCC[C@H]5C(=O)NC5CCCCC5)ccn4)ccc3C2=O)C(=O)N1` (stereo partly drawn) [Example 190, (2S)—N-cyclohexyl-1-((2-(2-(2,6-dioxopiperidin-3-yl)-1-oxoisoindolin-5-yl)pyridin-4-yl)methyl)pyrrolidine-2-carboxamide], the DC50 amounted to 49.7 nM.
For `O=C1CCC(N2Cc3cc(-c4cc(CN5CC[C@@H]5COc5ccc(Cl)nc5)ccn4)ccc3C2=O)C(=O)N1` (stereo partly drawn) [Example 191, 3-(5-(4-(((R)-2-(((6-chloropyridin-3-yl)oxy)methyl)azetidin-1-yl)methyl)pyridin-2-yl)-1-oxoisoindolin-2-yl)piperidine-2,6-dione], the DC50 stood at 53.6 nM.
As to `O=C1CCC(N2Cc3cc(-c4cc(CN5CCC5COc5ccc(F)cc5)ccn4)ccc3C2=O)C(=O)N1` (stereo not drawn) [Example 192, 3-(5-(4-((2-((4-fluorophenoxy)methyl)azetidin-1-yl)methyl)pyridin-2-yl)-1-oxoisoindolin-2-yl) piperidine-2,6-dione], the DC50 stood at 7.7 nM.
For the compound `CC(C)(C)OC(=O)NC[C@@H]1CCCN1Cc1ccnc(-c2ccc3c(c2)CN(C2CCC(=O)NC2=O)C3=O)c1` (stereo partly drawn) [Example 195, tert-butyl (((2S)-1-((2-(2-(2,6-dioxopiperidin-3-yl)-1-oxoisoindolin-5-yl)pyridin-4-yl)methyl)pyrrolidin-2-yl)methyl)carbamate], the DC50 was determined as 23.5 nM.
Take `CC(C)OCC1CCN1Cc1ccnc(-c2ccc3c(c2)CN(C2CCC(=O)NC2=O)C3=O)c1` (stereo not drawn) [Example 196, 3-(5-(4-((2-(isopropoxymethyl)azetidin-1-yl)methyl)pyridin-2-yl)-1-oxoisoindolin-2-yl)piperidine-2,6-dione]: the DC50 came out at 2.6 nM.
Take `CC1(F)CCN(Cc2ccnc(-c3ccc4c(c3)CN(C3CCC(=O)NC3=O)C4=O)c2F)CC1` (stereo not drawn) [Example 198, 3-(5-(3-fluoro-4-((4-fluoro-4-methylpiperidin-1-yl)methyl)pyridin-2-yl)-1-oxoisoindolin-2-yl)piperidine-2,6-dione]: the DC50 is 51.9 nM.
Regarding `CC(=O)N1CCCCN1Cc1ccnc(-c2ccc3c(c2)CN(C2CCC(=O)NC2=O)C3=O)c1F` (stereo not drawn) [Example 199, 3-(5-(4-((2-acetyltetrahydropyridazin-1(2H)-yl)methyl)-3-fluoropyridin-2-yl)-1-oxoisoindolin-2-yl)piperidine-2,6-dione], the DC50 is at least 10000 nM.
Consider `CC(C)(C)OC(=O)N1CC2CCCN(Cc3ccnc(-c4ccc5c(c4)CN(C4CCC(=O)NC4=O)C5=O)c3F)C2C1` (stereo not drawn) [Example 204, tert-butyl 1-((2-(2-(2,6-dioxopiperidin-3-yl)-1-oxoisoindolin-5-yl)-3-fluoropyridin-4-yl)methyl) octahydro-6H-pyrrolo[3,4-b]pyridine-6-carboxylate], for which the DC50 was at least 10000 nM.
In the case of `O=C1CCC(N2Cc3cc(-c4nccc(CN5CCCC(F)C5)c4F)ccc3C2=O)C(=O)N1` (stereo not drawn) [Example 205, 3-(5-(3-fluoro-4-((3-fluoropiperidin-1-yl)methyl)pyridin-2-yl)-1-oxoisoindolin-2-yl)piperidine-2,6-dione] it was at least 10000 nM; in that of `CC1(C)C2CN(Cc3ccnc(-c4ccc5c(c4)CN(C4CCC(=O)NC4=O)C5=O)c3F)CC21` (stereo not drawn) [Example 206, 3-(5-(4-((6,6-dimethyl-3-azabicyclo[3.1.0]hexan-3-yl)methyl)-3-fluoropyridin-2-yl)-1-oxoisoindolin-2-yl)piperidine-2,6-dione], 11.1 nM.
As for `CC(C)(C)OC(=O)N1CCC2(CN(Cc3ccnc(-c4ccc5c(c4)CN(C4CCC(=O)NC4=O)C5=O)c3F)C2)C1` (stereo not drawn) [Example 207, tert-butyl 2-((2-(2-(2,6-dioxopiperidin-3-yl)-1-oxoisoindolin-5-yl)-3-fluoropyridin-4-yl)methyl)-2,6-diazaspiro[3.4]octane-6-carboxylate], the DC50 is at least 10000 nM.
For the compound `CC(C)(C)OC(=O)N1CCCC2(CN(Cc3ccnc(-c4ccc5c(c4)CN(C4CCC(=O)NC4=O)C5=O)c3F)C2)C1` (stereo not drawn) [Example 208, tert-butyl 2-((2-(2-(2,6-dioxopiperidin-3-yl)-1-oxoisoindolin-5-yl)-3-fluoropyridin-4-yl)methyl)-2,6-diazaspiro[3.5]nonane-6-carboxylate], the DC50 is at least 10000 nM.
As for `O=C1CCC(N2Cc3cc(-c4nccc(CN5CCC(O)(C(F)(F)F)CC5)c4F)ccc3C2=O)C(=O)N1` (stereo not drawn) [Example 209, 3-(5-(3-fluoro-4-((4-hydroxy-4-(trifluoromethyl)piperidin-1-yl)methyl)pyridin-2-yl)-1-oxoisoindolin-2-yl)piperidine-2,6-dione], the DC50 was at least 10000 nM.
In the case of `CC(C)(C)OC(=O)N1CCCC12CCN(Cc1ccnc(-c3ccc4c(c3)CN(C3CCC(=O)NC3=O)C4=O)c1F)C2` (stereo not drawn) [Example 213, tert-butyl 7-((2-(2-(2,6-dioxopiperidin-3-yl)-1-oxoisoindolin-5-yl)-3-fluoropyridin-4-yl)methyl)-1,7-diazaspiro[4.4]nonane-1-carboxylate] it was at least 10000 nM.

These data come from US20250346574A1, “PYRIDINYL SUBSTITUTED OXOISOINDOLINE COMPOUNDS FOR THE TREATMENT OF CANCER” (Bristol-Myers Squibb Company, priority 2021, published 2025).
